Source: patent publication US8674111B2, “Oxazole and thiazole derivatives as ALX receptor agonists” (Actelion Pharmaceuticals Ltd., priority 2009, dated 2014)

Target: T1, recombinant human ALX receptor (Homo sapiens, UniProt P25090)
T1 construct: expressed in transfected cells; host or cells: HEK293 (HEK293-hALXR-Gα16)
T1 sequence (P25090 1-351): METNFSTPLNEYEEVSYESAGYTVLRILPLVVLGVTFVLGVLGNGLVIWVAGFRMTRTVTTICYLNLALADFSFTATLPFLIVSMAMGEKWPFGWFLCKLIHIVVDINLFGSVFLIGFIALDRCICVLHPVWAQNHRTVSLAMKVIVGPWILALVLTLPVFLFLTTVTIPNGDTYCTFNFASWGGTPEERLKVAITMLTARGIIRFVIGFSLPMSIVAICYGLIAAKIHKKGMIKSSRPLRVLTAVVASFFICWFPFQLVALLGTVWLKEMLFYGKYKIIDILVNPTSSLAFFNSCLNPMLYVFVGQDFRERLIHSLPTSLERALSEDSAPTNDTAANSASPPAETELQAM
Assay: Intracellular calcium measurements (FLIPR), ALX receptor agonistic activity
Format: cell-based
Conditions: HEK293-hALXR-Gα16 cells; Fluo-4 calcium fluorescence; normalized to WKYMVm 10 nM
Experimental: The ALX receptor agonistic activity of the compounds of formula (I) is determined in accordance with the following experimental method.
Intracellular Calcium Measurements:
Cells expressing recombinant human ALX receptor and the G-protein Gα16 (HEK293-hALXR-Gα16) were grown to 80% confluency in Growing Medium (GM). Cells were detached from culture dishes with a cell dissociation buffer (Invitrogen, 13151-014), and collected by centrifugation at 1,000 rpm at rt for 5 min in Assay Buffer (AB) (equal parts of Hank's BSS (Gibco, 14065-049) and DMEM without Phenol Red (Gibco, 11880-028)). After 60 min incubation at 37° C. under 5% CO2 in AB supplemented with 1 μM Fluo-4 (AM) (Invitrogen, F14202) and 20 mM HEPES (Gibco, 15630-056), the cells were washed and resuspended in AB. They were then seeded onto 384-well FLIPR assay plates (Greiner, 781091) at 50,000 cells in 70 μl per well and sedimented by centrifugation at 1,000 rpm for 1 min. Stock solutions of test compounds were made up at a concentration of 10 mM in DMSO, and serially diluted in AB to concentrations required for activation dose response curves. WKYMVm (Phoenix Peptides) was used as a reference agonist. A FLIPR Tetra instrument (Molecular Devices) was operated according to the manufacturer's standard instructions, adding 4 μl of test compound dissolved at 10 mM in DMSO and diluted prior to the experiment in assay buffer to obtain the desired final concentration. Changes in fluorescence were monitored before and after the addition of test compounds at lex=488 nm and lem=540 nm. Emission peak values above base level after compounds addition were exported after base line subtraction. Values were normalized to high-level control (WKYMVm compound, 10 nM final concentration) after subtraction of the base line value (AB addition).

Row | Compound | EC50 [nM]
1 | CC(=O)c1ccc(Cc2nc(NC(=O)c3ncoc3-c3ccccc3)cs2)s1 [Example 18, 5-Phenyl-oxazole-4-carboxylic acid [2-(5-acetyl-thiophen-2-ylmethyl)-thiazol-4-yl]-amide] | 1570
2 | Cc1cccc(-c2oc(C)nc2C(=O)Nc2coc(CCCCC(C)(F)F)n2)c1 [Example 5, 2-Methyl-5-m-tolyl-oxazole-4-carboxylic acid [2-(5,5-difluoro-hexyl)-oxazol-4-yl]-amide] | 194
3 | CCc1nc(C(=O)Nc2coc(CCCCC(C)=O)n2)c(-c2ccccc2)o1 [Example 9, 2-Ethyl-5-phenyl-oxazole-4-carboxylic acid [2-(5-oxo-hexyl)-oxazol-4-yl]-amide] | 3.2
4 | CC(=O)c1ccc(Cc2nc(NC(=O)c3nc(C)oc3-c3cccc(C)c3)cs2)o1 [Example 21, 2-Methyl-5-m-tolyl-oxazole-4-carboxylic acid [2-(5-acetyl-furan-2-ylmethyl)-thiazol-4-yl]-amide] | 216
5 | CC(=O)c1cccc(Cc2nc(NC(=O)/C=C/c3ccc(C(F)(F)F)cc3)co2)c1 [Example 17, (E)-N-[2-(3-Acetyl-benzyl)-oxazol-4-yl]-3-(4-trifluoromethyl-phenyl)-acrylamide] | 1310
6 | CC(=O)CCCCc1nc(NC(=O)c2ncsc2-c2cccc(F)c2)co1 [Example 7, 5-(3-Fluoro-phenyl)-thiazole-4-carboxylic acid [2-(5-oxo-hexyl)-oxazol-4-yl]-amide] | 784
7 | CC(=O)c1ccn(Cc2nc(NC(=O)OCc3ccc(F)cc3Cl)co2)n1 [Example 11, [2-(3-Acetyl-pyrazol-1-ylmethyl)-oxazol-4-yl]-carbamic acid 2-chloro-4-fluoro-benzyl ester] | 0.5
8 | CC(=O)CCCCc1nc(NC(=O)c2nc(C)oc2-c2cccc(C)c2)co1 [Example 6, 2-Methyl-5-m-tolyl-oxazole-4-carboxylic acid [2-(5-oxo-hexyl)-oxazol-4-yl]-amide] | 9.8
9 | COc1cccc(COC(=O)Nc2coc(Cn3ccc(C(C)=O)n3)n2)c1 [Example 12, [2-(3-Acetyl-pyrazol-1-ylmethyl)-oxazol-4-yl]-carbamic acid 3-methoxy-benzyl ester] | 1
10 | CC(=O)c1ccn(Cc2nc(NC(=O)OCc3ccccc3Cl)co2)n1 [Example 3, [2-(3-Acetyl-pyrazol-1-ylmethyl)-oxazol-4-yl]-carbamic acid 2-chloro-benzyl ester] | 0.7
11 | CC(=O)CCCCc1nc(NC(=O)c2ncoc2-c2ccc(F)cc2)co1 [Example 8, 5-(4-Fluoro-phenyl)-oxazole-4-carboxylic acid [2-(5-oxo-hexyl)-oxazol-4-yl]-amide] | 86
12 | CC(F)(F)CCCCc1nc(NC(=O)OCc2ccccc2Cl)co1 [Example 4, [2-(5,5-Difluoro-hexyl)-oxazol-4-yl]-carbamic acid 2-chloro-benzyl ester] | 13
13 | O=C(Nc1coc(Cn2cc(Br)cn2)n1)OCc1ccccc1Cl [Example 10, [2-(4-Bromo-pyrazol-1-ylmethyl)-oxazol-4-yl]-carbamic acid 2-chloro-benzyl ester] | 72

The remaining molecules from weak to strong by EC50, led by results:

Row | EC50 [nM] | Compound
14 | 6560 | CC(=O)c1ccn(Cc2nc(NC(=O)c3nc(C4CC4)sc3-c3ccccc3)co2)n1 [Example 16, 2-Cyclopropyl-5-phenyl-thiazole-4-carboxylic acid [2-(3-acetyl-pyrazol-1-ylmethyl)-oxazol-4-yl]-amide]
15 | 3640 | CC(=O)c1ccc(Cc2nc(NC(=O)c3nc(C)oc3-c3cccc(Cl)c3)cs2)s1 [Example 19, 5-(3-Chloro-phenyl)-2-methyl-oxazole-4-carboxylic acid [2-(5-acetyl-thiophen-2-ylmethyl)-thiazol-4-yl]-amide]
16 | 62 | CC(=O)c1ccc(Cc2nc(NC(=O)c3ncoc3-c3ccccc3)cs2)o1 [Example 20, 5-Phenyl-oxazole-4-carboxylic acid [2-(5-acetyl-furan-2-ylmethyl)-thiazol-4-yl]-amide]
17 | 48 | CC(=O)c1cccc(Cc2nc(NC(=O)OCc3cccc(OC(F)(F)F)c3)co2)c1 [Example 15, [2-(3-Acetyl-benzyl)-oxazol-4-yl]-carbamic acid 3-trifluoromethoxy-benzyl ester]
18 | 18 | CC(=O)CCCCc1nc(NC(=O)c2ncoc2-c2ccccc2)co1 [Example 2, 5-Phenyl-oxazole-4-carboxylic acid [2-(5-oxo-hexyl)-oxazol-4-yl]-amide]
19 | 12 | CC(=O)c1ccn(Cc2nc(NC(=O)OCc3ccc(C(F)(F)F)cc3)co2)n1 [Example 13, [2-(3-Acetyl-pyrazol-1-ylmethyl)-oxazol-4-yl]-carbamic acid 4-trifluoromethyl-benzyl ester]
20 | 2.2 | CC(=O)c1ccc(Cc2nc(NC(=O)OCc3ccccc3Cl)co2)s1 [Example 14, [2-(5-Acetyl-thiophen-2-ylmethyl)-oxazol-4-yl]-carbamic acid 2-chloro-benzyl ester]
21 | 0.3 | CC(=O)CCCCc1nc(NC(=O)OCc2ccccc2Cl)co1 [Example 1, [2-(5-Oxo-hexyl)-oxazol-4-yl]-carbamic acid 2-chloro-benzyl ester]
